ChEMBL document CHEMBL5625164, “Design, synthesis, and evaluation of new anti-inflammatory natural products amide derivatives endowed with anti-blood cancer activity towards development of potential multifunctional agents against hematological cancers” (Eur J Med Chem, 2023)
Activity calls are given as the source filed them. No cut-off for these calls is given here.

Key:
MOLT-4 [1] = assay: Anticancer activity against human MOLT-4 cells assessed as growth inhibition measured after 48 hrs by SRB assay relative to control; type: functional
CCRF-CEM [2] = assay: Anticancer activity against human CCRF-CEM cells assessed as growth inhibition at 10 uM measured after 48 hrs by SRB assay relative to control; type: functional; conditions: read-out: GI
HL-60 [3] = assay: Anticancer activity against human HL-60 cells assessed as growth inhibition measured after 48 hrs by SRB assay relative to control; type: functional
RPMI-8226 [4] = assay: Anticancer activity against human RPMI-8226 cells assessed as growth inhibition at 10 uM measured after 48 hrs by SRB assay relative to control; type: functional; conditions: read-out: GI
CCRF-CEM [5] = assay: Anticancer activity against human CCRF-CEM cells assessed as growth inhibition measured after 48 hrs by SRB assay relative to control; type: functional
SR [6] = assay: Anticancer activity against human SR cells assessed as growth inhibition measured after 48 hrs by SRB assay relative to control; type: functional
SR [7] = assay: Anticancer activity against human SR cells assessed as growth inhibition at 10 uM measured after 48 hrs by SRB assay relative to control; type: functional; conditions: read-out: GI
RPMI-8226 [8] = assay: Anticancer activity against human RPMI-8226 cells assessed as growth inhibition measured after 48 hrs by SRB assay relative to control; type: functional
K562 [9] = assay: Anticancer activity against human K562 cells assessed as growth inhibition measured after 48 hrs by SRB assay relative to control; type: functional
HL-60 [10] = assay: Anticancer activity against human HL-60 cells assessed as growth inhibition at 10 uM measured after 48 hrs by SRB assay relative to control; type: functional
MOLT-4 [11] = assay: Anticancer activity against human MOLT-4 cells assessed as growth inhibition at 10 uM measured after 48 hrs by SRB assay relative to control; type: functional; conditions: read-out: GI
HL-60 [12] = assay: Induction of cell cycle arrest in human HL-60 cells assessed as accumulation of cells at G2/M phase at 50 uM measured after 48 hrs by propidium iodide staining based flow cytometry (reference value: 16.61%); type: functional
BV-2 [13] = assay: Anti-inflammatory activity against mouse BV-2 cells assessed as inhibition of LPS-induced NO production pretreated for 2 hrs followed stimulated with LPS for 22 hrs by Griess reaction assay; type: functional, cell-based
HL-60 [14] = assay: Induction of cell cycle arrest in human HL-60 cells assessed as accumulation of cells at G2/M phase at 50 uM measured after 24 hrs by propidium iodide staining based flow cytometry (reference value: 9.01%); type: functional
HL-60 [15] = assay: Induction of cell cycle arrest in human HL-60 cells assessed as accumulation of cells at SubG1 phase at 10 uM measured after 24 hrs by propidium iodide staining based flow cytometry (reference value: 5.89%); type: functional
HL-60 [16] = assay: Induction of cell cycle arrest in human HL-60 cells assessed as accumulation of cells at G0/G1 phase at 10 uM measured after 24 hrs by propidium iodide staining based flow cytometry (reference value: 66.61%); type: functional
HL-60 [17] = assay: Induction of cell cycle arrest in human HL-60 cells assessed as accumulation of cells at SubG1 phase at 50 uM measured after 48 hrs by propidium iodide staining based flow cytometry (reference value: 4.25%); type: functional
HL-60 [18] = assay: Induction of apoptosis in human HL-60 cells assessed as early apoptotic cells measured after 24 hrs by annexin V/propidium iodide staining based FACS assay; type: functional, cell-based; conditions: dose 10-50 µM
[19] = Cytotoxicity against mouse RAW264.7 cells assessed as macrophage viability at 10 uM relative to control; type: toxicity, cell-based; conditions: read-out: Activity
BV-2 [20] = assay: Anti-inflammatory activity against mouse BV-2 cells assessed as inhibition of LPS-induced TNFalpha production pretreated for 2 hrs followed stimulated with LPS for 22 hrs at 10 uM relative to control; type: functional; conditions: time 24 hrs
HL-60 [21] = assay: Induction of cell cycle arrest in human HL-60 cells assessed as accumulation of cells at S phase at 50 uM measured after 24 hrs by propidium iodide staining based flow cytometry (reference value: 13.85%); type: functional
HL-60 [22] = assay: Induction of cell cycle arrest in human HL-60 cells assessed as accumulation of cells at S phase at 10 uM measured after 24 hrs by propidium iodide staining based flow cytometry (reference value: 13.85%); type: functional
HL-60 [23] = assay: Induction of cell cycle arrest in human HL-60 cells assessed as accumulation of cells at G0/G1 phase at 25 uM measured after 24 hrs by propidium iodide staining based flow cytometry (reference value: 66.61%); type: functional
HL-60 [24] = assay: Induction of cell cycle arrest in human HL-60 cells assessed as accumulation of cells at SubG1 phase at 25 uM measured after 48 hrs by propidium iodide staining based flow cytometry (reference value: 4.25%); type: functional
BV-2 [25] = assay: Anti-inflammatory activity against mouse BV-2 cells assessed as inhibition of LPS-induced PGE2 production pretreated for 2 hrs followed stimulated with LPS for 22 hrs at 10 uM relative to control; type: functional; conditions: time 24 hrs
HL-60 [26] = assay: Induction of cell cycle arrest in human HL-60 cells assessed as accumulation of cells at S phase at 25 uM measured after 48 hrs by propidium iodide staining based flow cytometry (reference value: 7.16%); type: functional
HL-60 [27] = assay: Induction of cell cycle arrest in human HL-60 cells assessed as accumulation of cells at SubG1 phase at 50 uM measured after 24 hrs by propidium iodide staining based flow cytometry (reference value: 5.89%); type: functional
HL-60 [28] = assay: Induction of apoptosis in human HL-60 cells assessed as total apoptotic cells measured after 24 hrs by annexin V/propidium iodide staining based FACS assay; type: functional, cell-based; conditions: dose 10-50 µM
HL-60 [29] = assay: Induction of cell cycle arrest in human HL-60 cells assessed as accumulation of cells at G0/G1 phase at 50 uM measured after 48 hrs by propidium iodide staining based flow cytometry (reference value: 60.03%); type: functional
HL-60 [30] = assay: Induction of cell cycle arrest in human HL-60 cells assessed as accumulation of cells at G0/G1 phase at 50 uM measured after 24 hrs by propidium iodide staining based flow cytometry (reference value: 66.61%); type: functional
HL-60 [31] = assay: Induction of cell cycle arrest in human HL-60 cells assessed as accumulation of cells at S phase at 25 uM measured after 24 hrs by propidium iodide staining based flow cytometry (reference value: 13.85%); type: functional
HL-60 [32] = assay: Induction of cell cycle arrest in human HL-60 cells assessed as accumulation of cells at SubG1 phase at 25 uM measured after 24 hrs by propidium iodide staining based flow cytometry (reference value: 5.89%); type: functional
BV-2 [33] = assay: Anti-inflammatory activity against mouse BV-2 cells assessed as inhibition of LPS-induced TNFalpha production pretreated for 2 hrs followed stimulated with LPS for 22 hrs; type: functional, cell-based; conditions: time 24.0 hrs
HL-60 [34] = assay: Induction of cell cycle arrest in human HL-60 cells assessed as accumulation of cells at G2/M phase at 25 uM measured after 48 hrs by propidium iodide staining based flow cytometry (reference value: 16.61%); type: functional
BV-2 [35] = assay: Anti-inflammatory activity against mouse BV-2 cells assessed as inhibition of LPS-induced PGE2 production pretreated for 2 hrs followed stimulated with LPS for 22 hrs; type: functional, cell-based
HL-60 [36] = assay: Induction of cell cycle arrest in human HL-60 cells assessed as accumulation of cells at G2/M phase at 10 uM measured after 48 hrs by propidium iodide staining based flow cytometry (reference value: 16.61%); type: functional
BV-2 [37] = assay: Anti-inflammatory activity against mouse BV-2 cells assessed as inhibition of LPS-induced NO production at 10 uM pretreated for 2 hrs followed stimulated with LPS for 22 hrs by Griess reaction assay relative to control; type: functional; conditions: time 24 hrs
HL-60 [38] = assay: Induction of cell cycle arrest in human HL-60 cells assessed as accumulation of cells at G0/G1 phase at 10 uM measured after 48 hrs by propidium iodide staining based flow cytometry (reference value: 60.03%); type: functional
HL-60 [39] = assay: Induction of cell cycle arrest in human HL-60 cells assessed as accumulation of cells at G2/M phase at 10 uM measured after 24 hrs by propidium iodide staining based flow cytometry (reference value: 9.01%); type: functional
HL-60 [40] = assay: Induction of cell cycle arrest in human HL-60 cells assessed as accumulation of cells at SubG1 phase at 10 uM measured after 48 hrs by propidium iodide staining based flow cytometry (reference value: 4.25%); type: functional
HL-60 [41] = assay: Induction of cell cycle arrest in human HL-60 cells assessed as accumulation of cells at S phase at 10 uM measured after 48 hrs by propidium iodide staining based flow cytometry (reference value: 7.16%); type: functional
HL-60 [42] = assay: Induction of cell cycle arrest in human HL-60 cells assessed as accumulation of cells at S phase at 50 uM measured after 48 hrs by propidium iodide staining based flow cytometry (reference value: 7.16%); type: functional
K562 [43] = assay: Anticancer activity against human K562 cells assessed as growth inhibition at 10 uM measured after 48 hrs by SRB assay relative to control; type: functional; conditions: read-out: GI
HL-60 [44] = assay: Induction of cell cycle arrest in human HL-60 cells assessed as accumulation of cells at G0/G1 phase at 25 uM measured after 48 hrs by propidium iodide staining based flow cytometry (reference value: 60.03%); type: functional
HL-60 [45] = assay: Induction of cell cycle arrest in human HL-60 cells assessed as accumulation of cells at G2/M phase at 25 uM measured after 24 hrs by propidium iodide staining based flow cytometry (reference value: 9.01%); type: functional
[46] = Cytotoxicity against mouse RAW264.7 cells assessed as macrophage viability at 40 uM relative to control; type: toxicity, cell-based; conditions: read-out: Activity
BV-2 [47] = assay: Anti-inflammatory activity against mouse BV-2 cells assessed as inhibition of LPS-induced NO production at 40 uM pretreated for 2 hrs followed stimulated with LPS for 22 hrs by Griess reaction assay relative to control; type: functional; conditions: time 24 hrs

SMILES: Cc1ccc(NC(=O)c2ccc(CN3CCN(C)CC3)cc2)cc1Nc1nccc(-c2cccnc2)n1 [IMATINIB]
- GI50 (MOLT-4 [1]): 5.13 µM
- inhibition of growth at 10 µM (CCRF-CEM [2]): 6.6%
- GI50 (HL-60 [3]): 13.5 µM
- inhibition of growth at 10 µM (RPMI-8226 [4]): 12.6%
- GI50 (CCRF-CEM [5]): 17 µM
- GI50 (SR [6]): 7.24 µM
- inhibition of growth at 10 µM (SR [7]): 14.6%
- GI50 (RPMI-8226 [8]): 6.17 µM
- GI50 (K562 [9]): 0.05 µM
- growth inhibition (GI) (HL-60 [10]): inactive
- inhibition of growth at 10 µM (MOLT-4 [11]): 18%

SMILES: COc1cc2c(c(OC)c1OC)C(=O)CC(c1cccc(NC(=O)c3ccc(Br)cc3)c1)O2 (racemic)
- Activity (HL-60 [12]): 1.61%
- GI50 (MOLT-4 [1]): 1.63 µM
- IC50 (BV-2 [13]): 14.7 µM
- Activity (HL-60 [14]): 1.8%
- Activity (HL-60 [15]): 6.15%
- Activity (HL-60 [16]): 51.19%
- Activity (HL-60 [17]): 90.39%
- Activity (HL-60 [18]): Dose-Dependent Effect
- viability at 10 µM [19]: 106%
- inhibition at 10 µM (BV-2 [20]): 50%
- Activity (HL-60 [21]): 5.77%
- inhibition of growth at 10 µM (CCRF-CEM [2]): 97.1%
- Activity (HL-60 [22]): 19.25%
- GI50 (HL-60 [3]): 1.64 µM
- Activity (HL-60 [23]): 2.08%
- Activity (HL-60 [24]): 74.54%
- inhibition at 10 µM (BV-2 [25]): 61.1%
- inhibition of growth at 10 µM (RPMI-8226 [4]): 105%
- GI50 (CCRF-CEM [5]): 2.62 µM
- Activity (HL-60 [26]): 1.33%
- Activity (HL-60 [27]): 70.09%
- Activity (HL-60 [28]): Dose-Dependent Effect
- Activity (HL-60 [29]): 3.96%
- Activity (HL-60 [30]): 4.82%
- GI50 (SR [6]): 1.34 µM
- Activity (HL-60 [31]): 27.79%
- Activity (HL-60 [32]): 43.13%
- Activity (BV-2 [33]): Dose-Dependent Effect
- Activity (HL-60 [34]): 10.01%
- inhibition of growth at 10 µM (SR [7]): 96.1%
- IC50 (BV-2 [35]): 9.1 µM
- Activity (HL-60 [36]): 26.61%
- inhibition at 10 µM (BV-2 [37]): 45.2%
- Activity (HL-60 [38]): 33.83%
- GI50 (RPMI-8226 [8]): 1.58 µM
- GI50 (K562 [9]): 1.42 µM
- Activity (HL-60 [39]): 5.69%
- Activity (HL-60 [40]): 8.99%
- Activity (HL-60 [41]): 12.39%
- Activity (HL-60 [42]): 1.21%
- inhibition of growth at 10 µM (K562 [43]): 94.1%
- Activity (HL-60 [44]): 5.89%
- inhibition of growth at 10 µM (MOLT-4 [11]): 112%
- Activity (HL-60 [45]): 2.22%

SMILES: CC(=N)NCCCC[C@H](N)C(=O)O [L-NIL]
- viability at 40 µM [46]: 106%
- inhibition at 40 µM (BV-2 [47]): 54.3%
